# PubChem BioAssay (NCI)
#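 Five concentrations, 48 hours, 96-well plates. GI50 = concentration required for 50% inhibition of growth. TGI: total growth inhibition.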
# Columns and labels:
# Experiment in all cases: NCI tumour cell line growth inhibition, 48 h
# MALME-3M melanoma = system: MALME-3M melanoma
# SNB-75 CNS = system: SNB-75 CNS
# CCRF-CEM leukemia = system: CCRF-CEM leukemia
# MCF7 breast = system: MCF7 breast
# RXF 393 renal = system: RXF 393 renal
# A549 NSCLC = system: A549 NSCLC
# HCC-2998 colon = system: HCC-2998 colon
# A498 renal = system: A498 renal
# HL-60(TB) leukemia = system: HL-60(TB) leukemia
# SK-OV-3 ovarian = system: SK-OV-3 ovarian
# SF-539 CNS = system: SF-539 CNS
# NCI-H522 lung = system: NCI-H522 lung
# UACC-257 melanoma = system: UACC-257 melanoma
# OVCAR-8 ovarian = system: OVCAR-8 ovarian
# T-47D breast = system: T-47D breast
# NCI-H226 lung = system: NCI-H226 lung
# ACHN renal = system: ACHN renal
# BT-549 breast = system: BT-549 breast
# SN12C renal = system: SN12C renal
# COLO 205 colon = system: COLO 205 colon
# CAKI-1 renal = system: CAKI-1 renal
# SF-295 CNS = system: SF-295 CNS
# NCI-H23 lung = system: NCI-H23 lung
# SK-MEL-28 melanoma = system: SK-MEL-28 melanoma
# K-562 leukemia = system: K-562 leukemia
# SNB-19 CNS = system: SNB-19 CNS
# SF-268 CNS = system: SF-268 CNS
# HOP-62 NSCLC = system: HOP-62 NSCLC
# MDA-MB-231 breast = system: MDA-MB-231 breast
# UO-31 renal = system: UO-31 renal
# SK-MEL-5 melanoma = system: SK-MEL-5 melanoma
# DU-145 prostate = system: DU-145 prostate
# HOP-92 NSCLC = system: HOP-92 NSCLC
# HCT-15 colon = system: HCT-15 colon
# UACC-62 melanoma = system: UACC-62 melanoma
# OVCAR-5 ovarian = system: OVCAR-5 ovarian
# RPMI-8226 leukemia = system: RPMI-8226 leukemia
# HT29 colon = system: HT29 colon
# MOLT-4 leukemia = system: MOLT-4 leukemia
# EKVX NSCLC = system: EKVX NSCLC
# KM12 colon = system: KM12 colon
# HS 578T breast = system: HS 578T breast
# U251 CNS = system: U251 CNS
# SK-MEL-2 melanoma = system: SK-MEL-2 melanoma
# OVCAR-4 ovarian = system: OVCAR-4 ovarian
# LOX IMVI melanoma = system: LOX IMVI melanoma
# OVCAR-3 ovarian = system: OVCAR-3 ovarian
# PC-3 prostate = system: PC-3 prostate
# M14 melanoma = system: M14 melanoma
# NCI/ADR-RES ovarian = system: NCI/ADR-RES ovarian
structure (smiles),measurement,setting,value
COc1cc2c(cc1OCCCCCN1CCN(c3ncnc4ccccc34)CC1)N=CC1CCCN1C2=O (configuration not stated),GI50,MALME-3M melanoma,30.3 nM
same,TGI,MALME-3M melanoma,61.8 nM
same,GI50,SNB-75 CNS,16.8 nM
same,TGI,SNB-75 CNS,82.3 nM
same,GI50,CCRF-CEM leukemia,13.3 nM
same,TGI,CCRF-CEM leukemia,72.7 nM
same,GI50,MCF7 breast,16.2 nM
same,TGI,MCF7 breast,923 nM
same,GI50,RXF 393 renal,25.3 nM
same,TGI,RXF 393 renal,45.4 nM
same,GI50,A549 NSCLC,30.7 nM
same,TGI,A549 NSCLC,25800 nM
same,GI50,HCC-2998 colon,17.8 nM
same,TGI,HCC-2998 colon,34.9 nM
same,GI50,A498 renal,18 nM
same,TGI,A498 renal,34 nM
same,GI50,HL-60(TB) leukemia,25.4 nM
same,GI50,SK-OV-3 ovarian,33.4 nM
same,TGI,SK-OV-3 ovarian,379 nM
same,GI50,SF-539 CNS,26.8 nM
same,TGI,SF-539 CNS,68.5 nM
same,TGI,NCI-H522 lung,26.9 nM
same,GI50,UACC-257 melanoma,73.8 nM
same,TGI,UACC-257 melanoma,568 nM
same,GI50,OVCAR-8 ovarian,33.4 nM
same,TGI,OVCAR-8 ovarian,> 81900 nM
same,GI50,T-47D breast,13.9 nM
same,TGI,T-47D breast,42.8 nM
same,GI50,NCI-H226 lung,20.3 nM
same,TGI,NCI-H226 lung,47.9 nM
same,GI50,ACHN renal,52.3 nM
same,TGI,ACHN renal,4150 nM
same,GI50,BT-549 breast,22.9 nM
same,TGI,BT-549 breast,62.8 nM
same,GI50,SN12C renal,30 nM
same,TGI,SN12C renal,4650 nM
same,GI50,COLO 205 colon,18.7 nM
same,TGI,COLO 205 colon,40.8 nM
same,GI50,CAKI-1 renal,29.2 nM
same,TGI,CAKI-1 renal,1170 nM
same,GI50,SF-295 CNS,22.6 nM
same,TGI,SF-295 CNS,67.1 nM
same,GI50,NCI-H23 lung,34.2 nM
same,TGI,NCI-H23 lung,196 nM
same,GI50,SK-MEL-28 melanoma,26.4 nM
same,TGI,SK-MEL-28 melanoma,56.9 nM
same,GI50,K-562 leukemia,< 17.4 nM
same,GI50,SNB-19 CNS,33.3 nM
same,TGI,SNB-19 CNS,3530 nM
same,GI50,SF-268 CNS,34.9 nM
same,TGI,SF-268 CNS,2070 nM
same,GI50,HOP-62 NSCLC,25.7 nM
same,TGI,HOP-62 NSCLC,358 nM
same,GI50,MDA-MB-231 breast,19.3 nM
same,TGI,MDA-MB-231 breast,60.4 nM
same,GI50,UO-31 renal,30 nM
same,TGI,UO-31 renal,198 nM
same,GI50,SK-MEL-5 melanoma,18 nM
same,TGI,SK-MEL-5 melanoma,33.8 nM
same,GI50,DU-145 prostate,27.1 nM
same,TGI,DU-145 prostate,970 nM
same,GI50,HOP-92 NSCLC,22.4 nM
same,TGI,HOP-92 NSCLC,69 nM
same,GI50,HCT-15 colon,206 nM
same,TGI,HCT-15 colon,4090 nM
same,GI50,UACC-62 melanoma,19.6 nM
same,TGI,UACC-62 melanoma,38.3 nM
same,GI50,OVCAR-5 ovarian,35.9 nM
same,TGI,OVCAR-5 ovarian,14700 nM
same,GI50,RPMI-8226 leukemia,< 13.8 nM
same,TGI,RPMI-8226 leukemia,35 nM
same,GI50,HT29 colon,27.5 nM
same,TGI,HT29 colon,10800 nM
same,GI50,MOLT-4 leukemia,19.4 nM
same,TGI,MOLT-4 leukemia,70.6 nM
same,GI50,EKVX NSCLC,114 nM
same,TGI,EKVX NSCLC,724 nM
same,GI50,KM12 colon,28.9 nM
same,TGI,KM12 colon,952 nM
same,GI50,HS 578T breast,27.5 nM
same,TGI,HS 578T breast,84.2 nM
same,GI50,U251 CNS,25.2 nM
same,TGI,U251 CNS,3980 nM
same,GI50,SK-MEL-2 melanoma,42.5 nM
same,TGI,SK-MEL-2 melanoma,709 nM
same,GI50,OVCAR-4 ovarian,49.8 nM
same,TGI,OVCAR-4 ovarian,2280 nM
same,GI50,LOX IMVI melanoma,16.7 nM
same,GI50,OVCAR-3 ovarian,22.3 nM
same,TGI,OVCAR-3 ovarian,51.2 nM
same,GI50,PC-3 prostate,21.8 nM
same,TGI,PC-3 prostate,154 nM
same,GI50,M14 melanoma,32 nM
same,TGI,M14 melanoma,128 nM
same,GI50,NCI/ADR-RES ovarian,378 nM
same,TGI,NCI/ADR-RES ovarian,> 36400 nM
OC(c1cc2cc(Cl)ccc2c2cc(C(F)(F)F)ccc12)C1CCCCN1 (configuration not stated),GI50,SNB-75 CNS,1690 nM
same,TGI,SNB-75 CNS,3140 nM
same,GI50,HL-60(TB) leukemia,1920 nM
same,TGI,HL-60(TB) leukemia,3720 nM
same,GI50,SF-295 CNS,1960 nM
same,TGI,SF-295 CNS,3690 nM
same,GI50,UO-31 renal,1590 nM
same,TGI,UO-31 renal,3060 nM
same,GI50,DU-145 prostate,1900 nM
same,TGI,DU-145 prostate,3370 nM
same,GI50,HOP-92 NSCLC,1420 nM
same,TGI,HOP-92 NSCLC,2970 nM
same,GI50,OVCAR-5 ovarian,1480 nM
same,TGI,OVCAR-5 ovarian,2940 nM
same,GI50,RPMI-8226 leukemia,2210 nM
same,TGI,RPMI-8226 leukemia,4920 nM
